Measurements published in ChEMBL document CHEMBL5532713, “Ergone Derivatives from the Deep-Sea-Derived Fungus Aspergillus terreus YPGA10 and 25,28-Dihydroxyergone-Induced Apoptosis in Human Colon Cancer SW620 Cells” (J Nat Prod, 2024).
pEC50, pIC50: −log10 of the molar value. Calls of active or inactive are those of the source. The calls are words filed in the database; no cut-off is given here.

Columns and labels:
SW-620 [1] = assay: Antiproliferative activity against human SW-620 cells assessed as change in F-actin cytoskeleton density at 2.5 to 5 uM incubated for 48 hrs by DAPI staining based laser confocal microscope analysis; format: functional, cell-based; conditions: dose 2.5-5 µM
SW-620 [2] = assay: Induction of apoptosis in human SW-620 cells assessed as viable cells at 1.25 uM incubated for 48 hrs by Annexin V FITC/PI staining based flow cytometry analysis (reference value: 90.0 %); format: functional; conditions: read-out: Activity
SW-620 [3] = assay: Induction of apoptosis in human SW-620 cells assessed as necrotic cells at 5 uM incubated for 48 hrs by Annexin V FITC/PI staining based flow cytometry analysis (reference value: 0.057 %); format: functional
SW-620 [4] = assay: Induction of apoptosis in human SW-620 cells assessed as early apoptotic cells at 1.25 uM incubated for 48 hrs by Annexin V FITC/PI staining based flow cytometry analysis (reference value: 5.00 %); format: functional
SW-620 [5] = assay: Induction of apoptosis in human SW-620 cells assessed as decrease in Bcl-2 expression at 1.25 to 5 uM incubated for 48 hrs by Western blotting analysis; format: functional, cell-based; conditions: dose 1.25-5 µM
SW-620 [6] = assay: Induction of apoptosis in human SW-620 cells assessed as late apoptotic cells at 5 uM incubated for 48 hrs by Annexin V FITC/PI staining based flow cytometry analysis (reference value: 4.90 %); format: functional
SW-620 [7] = assay: Induction of apoptosis in human SW-620 cells assessed as viable cells at 2.5 uM incubated for 48 hrs by Annexin V FITC/PI staining based flow cytometry analysis (reference value: 90.0 %); format: functional; conditions: read-out: Activity
SW-620 [8] = assay: Induction of apoptosis in human SW-620 cells assessed as late apoptotic cells at 2.5 uM incubated for 48 hrs by Annexin V FITC/PI staining based flow cytometry analysis (reference value: 4.90 %); format: functional
SW-620 [9] = assay: Antiproliferative activity against human SW-620 cells assessed as inhibition of cell proliferation by measuring decrease in fluorescence intensity incubated for 48 hrs by EdU incorporation based fluorescence microscopic analysis; format: functional; conditions: dose 1.25-5 µM
SW-620 [10] = assay: Induction of apoptosis in human SW-620 cells assessed as necrotic cells at 2.5 uM incubated for 48 hrs by Annexin V FITC/PI staining based flow cytometry analysis (reference value: 0.057 %); format: functional
SW-620 [11] = assay: Induction of apoptosis in human SW-620 cells assessed as increase in Bax expression at 1.25 to 5 uM incubated for 48 hrs by Western blotting analysis; format: functional, cell-based; conditions: dose 1.25-5 µM
SW-620 [12] = assay: Antiproliferative activity against human SW-620 cells assessed as reduction in cell viability at 40 uM incubated for 48 hrs by CCK-8 assay; format: functional, cell-based
A549 = assay: Antiproliferative activity against human A549 cells assessed as reduction in cell viability by CCK-8 assay; format: functional, cell-based
MCF7 = assay: Antiproliferative activity against human MCF7 cells assessed as reduction in cell viability by CCK-8 assay; format: functional, cell-based; conditions: dose 40.0 µM, time 48.0 hrs
MDA-MB-231 = assay: Antiproliferative activity against human MDA-MB-231 cells assessed as reduction in cell viability by CCK-8 assay; format: functional, cell-based; conditions: dose 40.0 µM, time 48.0 hrs
[13] = Cytotoxicity against human BEAS-2B cells assessed as inhibition of cell growth at 40 uM incubated for 48 hrs by CCK-8 assay relative to control; format: toxicity, cell-based
SW-620 [14] = assay: Antiproliferative activity against human SW-620 cells assessed as change in F-actin cytoskeleton morphology at 1.25 uM incubated for 48 hrs by DAPI staining based laser confocal microscope analysis; format: functional, cell-based
SW-620 [15] = assay: Induction of apoptosis in human SW-620 cells assessed as increase in Bax/Bcl-2 ratio incubated for 48 hrs by Western blotting analysis; format: functional, cell-based; conditions: dose 1.25-5 µM
SW-620 [16] = assay: Induction of apoptosis in human SW-620 cells assessed as necrotic cells at 1.25 uM incubated for 48 hrs by Annexin V FITC/PI staining based flow cytometry analysis (reference value: 0.057 %); format: functional
SW-620 [17] = assay: Antiproliferative activity against human SW-620 cells assessed as reduction in cell viability incubated for 48 hrs by CCK-8 assay; format: functional, cell-based; conditions: for pIC50: SW-620, 48 h
PANC-1 = assay: Antiproliferative activity against human PANC-1 cells assessed as reduction in cell viability by CCK-8 assay; format: functional, cell-based
SW-620 [18] = assay: Induction of apoptosis in human SW-620 cells assessed as late apoptotic cells at 1.25 uM incubated for 48 hrs by Annexin V FITC/PI staining based flow cytometry analysis (reference value: 4.90 %); format: functional
SMMC-7721 = assay: Antiproliferative activity against human SMMC-7721 cells assessed as reduction in cell viability by CCK-8 assay; format: functional, cell-based
SW-620 [19] = assay: Induction of apoptosis in human SW-620 cells assessed as viable cells at 5 uM incubated for 48 hrs by Annexin V FITC/PI staining based flow cytometry analysis (reference value: 90.0 %); format: functional; conditions: read-out: Activity
SW-620 [20] = assay: Induction of apoptosis in human SW-620 cells assessed as early apoptotic cells at 5 uM incubated for 48 hrs by Annexin V FITC/PI staining based flow cytometry analysis (reference value: 5.00 %); format: functional
SW-620 [21] = assay: Induction of apoptosis in human SW-620 cells assessed as early apoptotic cells at 2.5 uM incubated for 48 hrs by Annexin V FITC/PI staining based flow cytometry analysis (reference value: 5.00 %); format: functional
U-937 [22] = assay: Inhibition of RSL3-induced ferroptosis in human U-937 cells; format: functional, cell-based
U-937 [23] = assay: Effect on cell survival in RSL3-induced human U-937 cells at 50 uM; format: functional, cell-based
CCRF-CEM = assay: Antiproliferative activity against human CCRF-CEM cells assessed as reduction in cell viability incubated for 48 hrs by CCK-8 assay; format: functional, cell-based
THP-1 = assay: Antiproliferative activity against human THP-1 cells assessed as reduction in cell viability incubated for 48 hrs by CCK-8 assay; format: functional, cell-based; conditions: THP-1, 48 h
Jurkat = assay: Antiproliferative activity against human Jurkat cells assessed as reduction in cell viability incubated for 48 hrs by CCK-8 assay; format: functional, cell-based
U-937 [24] = assay: Antiproliferative activity against human U-937 cells assessed as reduction in cell viability incubated for 48 hrs by CCK-8 assay; format: toxicity, cell-based; conditions: u-937, 48 h, 50 µM
K562 = assay: Antiproliferative activity against human K562 cells assessed as reduction in cell viability incubated for 48 hrs by CCK-8 assay; format: functional, cell-based; conditions: K562, 48 h

Q: With `C[C@H](/C=C/[C@H](CO)C(C)(C)O)[C@H]1CCC2=C3C=CC4=CC(=O)CC[C@]4(C)[C@H]3CC[C@@]21C` as the compound, how does the Activity (SW-620 [1]) read?
A: Active

Q: And the viability at 1.25 µM (SW-620 [2])?
A: 79.1%

Q: What about the Activity (SW-620 [3]) of the same compound?
A: 1.23%

Q: And the Activity (SW-620 [4])?
A: 6.2%

Q: What about the Activity (SW-620 [5]) of the same compound?
A: Active

Q: What about the Activity (SW-620 [6]) of the same compound?
A: 80.8%

Q: And the viability at 2.5 µM (SW-620 [7])?
A: 23.6%

Q: What about the Activity (SW-620 [8]) of the same compound?
A: 61.4%

Q: What about the Activity (SW-620 [9]) of the same compound?
A: Dose-Dependent Effect

Q: And the Activity (SW-620 [10])?
A: 2.55%

Q: And the Activity (SW-620 [11])?
A: Active

Q: And the Activity (SW-620 [12])?
A: Active

Q: What about the Activity (A549) of the same compound?
A: inactive

Q: What about the Activity (MCF7) of the same compound?
A: inactive

Q: And the Activity (MDA-MB-231)?
A: inactive

Q: And the inhibition at 48 h, 40 µM [13]?
A: < 7%

Q: What about the Activity (SW-620 [14]) of the same compound?
A: Active

Q: What about the Activity (SW-620 [15]) of the same compound?
A: Dose-Dependent Effect

Q: And the Activity (SW-620 [16])?
A: 0.63%

Q: And the Activity (SW-620 [17])?
A: Dose-Dependent Effect

Q: And the pIC50 (SW-620 [17])?
A: 5.51

Q: And the Activity (PANC-1)?
A: inactive

Q: What about the Activity (SW-620 [18]) of the same compound?
A: 14.1%

Q: What about the Activity (SMMC-7721) of the same compound?
A: inactive

Q: And the viability at 5 µM (SW-620 [19])?
A: 3.35%

Q: What about the Activity (SW-620 [20]) of the same compound?
A: 14.6%

Q: What about the Activity (SW-620 [21]) of the same compound?
A: 12.4%

Q: With `CC(=O)O[C@H]1C[C@H]([C@H](C)/C=C/[C@H](C)C(C)(O)CO)[C@]2(C)C1=C1C=CC3=CC(=O)CC[C@]3(C)[C@H]1C[C@H]2O` (stereo not given in full) as the compound, how does the pEC50 (U-937 [22]) read?
A: 4.52

Q: For `C[C@H](/C=C/[C@H](CO)C(C)(C)O)[C@H]1CC(=O)C2=C3C=CC4=CC(=O)CC[C@]4(C)[C@H]3C[C@@H](O)[C@@]21C`, which Activity (U-937 [23]) is on record?
A: Active

Q: With `CO[C@@H]1C[C@H]([C@H](C)/C=C/[C@H](CO)C(C)(C)O)[C@]2(C)C1=C1C=CC3=CC(=O)CC[C@]3(C)[C@H]1C[C@H]2O` as the compound, how does the Activity (U-937 [23]) read?
A: Active

Q: For `C[C@H](/C=C/[C@H](C)C(C)(C)O)[C@H]1C[C@H](O)C2=C3C=CC4=CC(=O)CC[C@]4(C)[C@H]3C[C@@H](O)[C@@]21C`, which Activity (U-937 [23]) is on record?
A: Active

Q: With `COc1cccc2c1C(=O)c1c(O)c3c(c(O)c1C2=O)C[C@@](O)(C(=O)CO)C[C@@H]3O[C@H]1C[C@H](N)[C@H](O)[C@H](C)O1` [DOXORUBICIN] as the compound, how does the pIC50 (SW-620 [17]) read?
A: 5.64

Q: With `CO[C@H]1C[C@H]([C@H](C)/C=C/[C@H](CO)C(C)(C)O)[C@]2(C)C1=C1C=CC3=CC(=O)CC[C@]3(C)[C@H]1C[C@H]2O` as the compound, how does the Activity (U-937 [23]) read?
A: Active

Q: With `C[C@H](/C=C/[C@H](CO)C(C)(C)O)[C@H]1CCC2=C3C=CC4=CC(=O)CC[C@]4(C)[C@H]3C[C@@H](O)[C@@]21C` as the compound, how does the pIC50 (CCRF-CEM) read?
A: 5.24

Q: What about the Activity (SW-620 [12]) of the same compound?
A: Active

Q: And the pIC50 (THP-1)?
A: 5.24

Q: And the Activity (U-937 [23])?
A: Active

Q: What about the Activity (A549) of the same compound?
A: inactive

Q: And the Activity (MCF7)?
A: inactive

Q: What about the Activity (MDA-MB-231) of the same compound?
A: inactive

Q: And the inhibition at 48 h, 40 µM [13]?
A: < 7%

Q: What about the Activity (SW-620 [17]) of the same compound?
A: Dose-Dependent Effect

Q: What about the pIC50 (SW-620 [17]) of the same compound?
A: 5.08

Q: And the Activity (PANC-1)?
A: inactive

Q: What about the Activity (SMMC-7721) of the same compound?
A: inactive

Q: What about the pIC50 (Jurkat) of the same compound?
A: 5.24

Q: And the Activity (U-937 [24])?
A: Toxic

Q: What about the pIC50 (K562) of the same compound?
A: 5.24

Q: Which Activity (U-937 [23]) does the source give for `C[C@H](/C=C/[C@H](CO)C(C)(C)O)[C@H]1C[C@H](O)C2=C3C=CC4=CC(=O)CC[C@]4(C)[C@H]3C[C@@H](O)[C@@]21C` here?
A: Active

Q: For `CC(=O)O[C@H]1C[C@H]([C@H](C)/C=C/[C@H](CO)C(C)(C)O)[C@]2(C)C1=C1C=CC3=CC(=O)CC[C@]3(C)[C@H]1C[C@H]2O`, which Activity (U-937 [23]) is on record?
A: Active
